In patent US9481915B2, “Method of screening drugs that promote LOXL1 expression” (SHANGHAI TENTH PEOPLE'S HOSPITAL, priority 2012, dated 2016):

How the values were obtained:
Format in all cases: cell-based
[1] = test system: human LOXL1 promoter; assay: PLOXL1-ZsGreen reporter: green fluorescence intensity of human fibroblasts
Protocol: S3. Drug screening: Inoculate the said human fibroblasts integrating PLOXL1-ZsGreen component into culture medium, incubate overnight. Dissolve the analyte into DMSO as 0.2-2 mg/ml, and dilute into 1:200, then add it into the cell culture medium, and its final concentration will be […]. After incubating overnight (37° C., 5% CO2), detect the green fluorescence intensity of these cells. The screening method of present invention decides if the analyte added stimulates the activity of human LOXL1 promoter effectively, and increases the expression of LOXL1, thus promotes the crosslinking of extracellular matrix protein, by checking if the green fluorescence intensity is increased.
Inoculate the said human fibroblasts integrating PLOXL1-ZsGreen component into culture medium with a density of 20%, keep adherent overnight. […] After culturing overnight (37° C., 5% CO2), detect the green fluorescence intensity of these cells. The present invention decides if the Chinese herbal extracts added stimulate the activity of human LOXL1 promoter effectively by checking if the green fluorescence intensity is increased. […]
Inoculate the said stably expressing human fibroblast strain integrating a expression cassette of PLOXL1-ZsGreen with a 20% density into media, keep adherent overnight (37° C., 5% CO2), detect the green fluorescence intensity of these cells. […]

[2] = test system: LOXL1; assay: Real-time and western blot of LOXL1 mRNA/protein and elastin dimer in human fibroblast lines HF1 and HF2; conditions: for expression of LOXL1 (mRNA and protein): 4 μM emodin, overnight; for formation of elastin dimer intermediate: different emodin concentrations
Protocol: Two human fibroblast cell lines integrating PLOXL1-ZsGreen components (HF1 and HF2) are inoculated at a density of 20%, incubated overnight (37° C., 5% CO2). […] After cultured overnight, Real-time and western blot are used to detect the mRNA level and protein level in LOXL1. Wherein, the one added DMSO solvent only works as the control, and is normalized to 1, data are calculated as Mean±SEM of three independent test values, *P<0.05; **P<0.001; ***P<0.0001. […] In these two cell lines, the expression of LOXL1 is not only linearly correlated to transcriptional level, but to LOXL1 protein level, and accomplishing elastin dimer intermediates formation.

[3] = test system: extracellular matrix crosslinking in human fibroblasts; assay: ELISA of desmosine and hydroxylproline (elastin and collagen crosslinking) in human fibroblast lines HF1 and HF2; conditions: different emodin concentrations
Protocol: Two human fibroblast cell lines integrating PLOXL1-ZsGreen components (HF1 and HF2) are inoculated at a density of 20%, incubated overnight (37° C., 5% CO2). Then, emodin is added into the culture medium. Detect the desmosine by ELISA method to determine the effects of different emodin concentrations to elastin crosslinking. This example determines the effects of different emodin concentrations to collagen crosslinking by detecting the contents of hydroxylproline through ELISA method. […] Thus, emodin promotes the crosslinking of extracellular matrix protein in human fibroblasts widely.

[4] = test system: LOXL1 in human skin tissue; assay: Real-time and western blot of LOXL1 and elastin monomer/dimer in cultured human skin tissue
Protocol: Emodin was added into the culture medium of human skin tissue. Detect the LOXL1 level in human skin tissue and elastin crosslinking level during 1˜3 days after emodin treatment. Detect the mRNA level and protein level of LOXL1 using Real-time and western blot methods, as well as detecting the amount of monomer and dimer of elastin. Wherein, the control with DMSO solvent added only is normalized to 1, data are calculated as Mean±SEM of three independent test values. *p<0.01, ***P<0.0001.

In the case of `Cc1cc(O)c2c(c1)C(=O)c1cc(O)cc(O)c1C2=O` [emodin], the “activity of human LOXL1 promoter (ZsGreen fluorescent intensity)” value ([1]; Example 4, FIG. 4a, 4 μM emodin) was “obvious promotion to the activity of human LOXL1 promoter”, the “fluorescent intensity of ZsGreen vs emodin concentration” value ([1]; Example 4, FIG. 4c, DMSO control normalized to 1) was “increases with the concentration of emodin, with a significant linear relationship” and the “expression of LOXL1 (mRNA and protein)” value ([2]; HF1 cell line, FIGS. 5a1-5a2) was “significantly promotes the expression of LOXL1”. For the same compound, the “formation of elastin dimer intermediate” value ([2]; HF1 cell line, FIG. 5a3) was “promotion of different emodin concentration to the expression of LOXL1 and the formation of elastin dimer intermediate”, the “expression of LOXL1 (mRNA and protein)” value ([2]; HF2 cell line, FIGS. 5b1-5b2) was “significantly promotes the expression of LOXL1” and the “formation of elastin dimer intermediate” value ([2]; HF2 cell line, FIG. 5b3) was “promotion of different emodin concentration to the expression of LOXL1 and the formation of elastin dimer intermediate”. The “desmosine intermediates (elastin crosslinking)” value ([3]; HF1, FIG. 6a1) was “increase with the increasing concentrations of emodin added”, the “hydroxylproline intermediate (collagen crosslinking)” value ([3]; HF1, FIG. 6a2) was “also increases with the increasing concentrations of emodin added” and the “desmosine intermediates (elastin crosslinking)” value ([3]; HF2, FIG. 6b1) was “increase with the increasing concentrations of emodin added”. For the same compound, the “hydroxylproline intermediate (collagen crosslinking)” value ([3]; HF2, FIG. 6b2) was “also increases with the increasing concentrations of emodin added”, the LOXL1 protein level ([4]; 4 μM emodin, FIG. 7b) was “significantly promotes the LOXL1 protein level” and the elastin intermediate dimers ([4]; 4 μM emodin, FIG. 7c) was “increase of intermediate dimers”. The elastin monomers ([4]; 4 μM emodin, FIG. 7c) was “decrease of elastin monomers” and the “LOXL1 mRNA level” value ([4]; different emodin concentrations, 1-3 days, FIG. 7a) was “increases as the emodin concentration increases”.
